From patent US20100279409A1, “METHOD FOR MODIFYING CELLUAR IMMUNE RESONSE BY MODULATING ACTIVIN ACTIVITY” (priority 2007, published 2010)

What was measured:
Human NK cells = test: IFN-γ ELISA of purified NK cells; type: cell-based
Procedure: A total of 1×10^5 highly purified human NK cells were cultured for 20 hours in medium supplemented with 20 U/ml IL-2, and 10 ng/ml IL-12. Either human recombinant activin-A, or TGF-β was added to the cultures, at concentrations of 10, 50 and 100 ng/ml. Supernatants were then tested for IFN-γ via ELISA, using standard methods. In these experiments 1×10^5 highly purified human NK cells were cultured as above, but were cultured with Poly I:C (10 μg/ml), or LPS (100 ng/ml), with or without 10, 50, or 100 ng/ml of recombinant human activin-A. In some cases, the known compound “SB431542,” which blocks activin-A binding to receptors was added. IFN-γ was then measured via ELISA, or by intracellular cytokine staining after 16 hours of culture, via addition of 1 μg/ml BFA, to prevent cytokine release. The impact of activin-A on production of IFN-γ by NK cells, in the absence of dendritic cells, was ascertained. Purified NK cells (1×10^5) were cultured in 96 well-plants, in media that was supplemented with 20 U/ml IL-2 and 10 ng/ml, IL-12, in the absence of, or with increasing concentrations of either activin-A, or TGF-β. Culture supernatants were assayed for IFN-γ after 24 hours of culture, using ELISAs, as described supra. As in the prior experiments, 1×10^5 purified NK cells were cultured in media supplemented with IL-2 only, or IL-2 plus IL-12, either with or without one of poly I:C or LPS, in the presence or absence of increased levels of activin-A.

NK cells [1] = test: Flow cytometry of CD25 and CD56 on NK cells; type: cell-based, human
Procedure: As above, 1×10^5 purified NK cells were cultured in 96 well-plates in media that had been supplemented with IL-2 and IL-12, either with or without the addition of TLR ligands, in the presence of activin-A (100 ng/ml).
After 24 hours, […] were collected, and stained with anti-CD25 antibodies, with expression being determined by flow cytometry.

NK cells [2] = test: NK cell viability by caspase and PI staining; type: cell-based, human; conditions: 24 hours
Procedure: With respect to testing viability, 1×10^5 purified NK cells were cultured as described supra, in 96 well-plates. After 24 hours of culture, cells were stained with antibodies to polycaspase, caspase 3/7, caspase 8 and PI.

NK cells [3] = test: NKp30 expression on NK cells by flow cytometry; type: cell-based, human; conditions: NK cells after 3 day culture, 100 ng/ml
Procedure: In order to investigate the mechanism behind these differences, the same NK cells were purified and cryopreserved immediately after the 3 day culture period. The cells were thawed, washed, and stained for NCR. NKp30, with expression levels determined via flow cytometry. The level of expression was also determined using “ex vivo” samples, and NK cells that were cultured, without exposure to targets.

activin-A was tested, and the IFN-γ production (Human NK cells; NK cells stimulated with Poly I:C, activin-A 10, 50, 100 ng/ml) was “suppressed IFN-γ production”, the IFN-γ production (Human NK cells; NK cells, IL-2 and IL-12, 20 hours, 10, 50, 100 ng/ml) was “as effective as TGF-β in suppressing the production of IFN-γ” and the IFN-γ production (Human NK cells; NK cells, IL-2 and IL-12, 24 hours, increasing concentrations) was “as potent as TGF-β in inhibiting IFN-γ production”. For the same substance, the IFN-γ production (Human NK cells; NK cells, IL-2 plus IL-12 with poly I:C or LPS, increased levels of activin-A) was “suppressed by addition of activin-A, in a concentration dependent manner”, the “downregulation of CD56” value (NK cells [1]; Example 16) was “suppressed” and the “upregulation of CD25” value (NK cells [1]; Example 16) was “suppressed”. The CD25 expression (NK cells [1]; IL-2 and IL-12 with or without TLR ligands, activin-A 100 ng/ml, 24 hours) was “significantly suppressed”, the “apoptosis (polycaspase, caspase 3/7, caspase 8, PI staining)” value (NK cells [2]) was “no indication of apoptosis” and the NKp30 expression (NK cells [3]) was “a very limited effect”.
